From patent US20150291598A1 (NOVARTIS AG, priority 2012, published 2015) come the findings set out here.

The subject of experiment [1] is P. falciparum (NF54 or 3D7 strain). Kind of experiment: Assay for P. falciparum proliferation in infected human blood cells (SYBR Green). It counts as cell-based, Plasmodium falciparum. As to conditions: Plasmodium falciparum, Erythrocyte. In a few lines:
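Infected erythrocytes (NF54 or 3D7; final 2.5% hematocrit, 0.3% parasitemia) were incubated with compounds for 72 h at 37 °C in low oxygen (3% O2, 4% CO2, 93% N2).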

The subject of the next experiment is P. yoelii Sporozoite. Description: P. yoelii sporozoite invasion assay in HepG2-A16-CD81EGFP liver cells (immunofluorescence quantification of EEFs). As to conditions: Plasmodium yoelii. It counts as cell-based. The source says:
Compounds of the invention can be assayed to measure their capacity to inhibit proliferation of parasites in liver cells. The proliferation is quantified by determine the number of infected cells by immunofluorescence.
Due to the difficulty of successfully infecting immortalized human liver cell lines with the human malaria sporozoites (liver-stage parasite), rodent malaria sporozoites from Plasmodium yoelii (17XNL) and P. berghei (ANKA) are the preferred surrogate. Sporozoites are obtained from Anopheles stephensi mosquitoes supplied by the New York University Insectary, which ships the malaria-infected mosquitoes 10-13 days following the ingestion of an infective blood meal.
A transgenic HepG2 cell line expressing the tetraspanin CD81 receptor (HepG2-A16-CD81^EGFP) is used to increase the infectivity rate of rodent-malaria sporozoites into human cells. HepG2-A16-CD81^EGFP cells are stably transformed to express a GFP-CD81 fusion protein. A continuous in vitro culture of this line was maintained at 37° C. in 4% CO2 in complete media (CM) which contains: DMEM (Invitrogen, Carlsbad, USA) supplemented with 10% FCS, 0.29 mg/ml glutamine, 100 units penicillin and 100 μg/ml streptomycin (SigmaAldrich, USA).
P. yoelii Sporozoite Invasion Assay
These plates are incubated at 37° C. with 4% CO2 overnight. Two hours prior to infection, 50 nl of compound dissolved in DMSO (0.1% final DMSO concentration per well) were transferred with a PinTool (GNF Systems) into the assay plates (10 μM final concentration). A 1:3 serial dilution of atovaquone (10 μM at the highest final concentration) and wells treated only with DMSO were used as positive and negative controls, respectively.
Freshly dissected salivary glands from infected mosquitoes were homogenized in a glass tissue grinder, filtered twice through Nylon cell strainers (40 μm pore size, BD Falcon) and counted using a hemocytometer. The assay plate with HepG2-A16-CD81^EGFP cells and compound were then infected with 8×10^3 sporozoites per well and the plates are subjected to a centrifugal force of 650×g to pellet the sporozoites onto the liver cell monolayer. The assay plate is incubated at 37° C. for 2 hours to permit sporozoite invasion, then the media is aspirated from the media plate, and replaced with 50 μl CM (containing a 5× concentration of penicillin/streptomycin; 500 units penicillin and 0.5 mg streptomycin per ml) per well. 50 nl of compound is re-introduced by PinTool and the assay plate incubated for 48 hours at 37° C. before quantification of infected cells by immunofluorescence.
Atovaquone and uninfected wells were used as controls on each plate. Two replicate plates are tested for each assay.
Stained EEFs were then quantified using the Opera Confocal High Content Screening System (PerkinElmer, Waltham, USA). Images were collected using a 20× objective lens (20×/0.45 NA, LWD Plan Fluor, Olympus) at a binning of 2, using a 365 nm Xeon arc lamp illumination to detect the Hoechst-labeled nuclei and 635 nm laser line to excite DyLight649-labeled parasites. The image resolution yielded was approximately 0.66 μm/pixel (˜0.43 μm 2/pixel). All images were analyzed using a custom Acapella™ (PerkinElmer) script parametrized for this assay. In brief, images from fields inside the well were first discarded as out-of focus when the intensity in the nuclear channel was too low. Then, HepG2-A16-CD81^EGFP cells were counted by detecting the nuclei labeled with Hoechst using the nuclei detection libraries available with Acapella™. Parasites were later segmented using the αPyHSP70 immuno-labeling signal, using a custom script library. Once the objects were segmented from the picture, morphological-based (e.g. size, roundness, etc) and intensity-based features were measured for each object detected in the image (i.e. nuclei and parasites). Infection ratio was set as the ratio between parasite number and number of nuclei counted in images considered as “in-focus”.

[2] abbreviates: 72 h, NF54 or 3D7 infected human erythrocytes, 72 hours, read-out: EC50 (nM), inhibitory efficacy in delaying P. falciparum proliferation in infected human blood cells.
The mark [3] stands for this setting: HepG2-A16-CD81EGFP cells, 48 hours, read-out: EC50 (nM), inhibitory efficacy in delaying the proliferation of P. yoelii sporozoite in infected liver cells.
Setting [4] is: read-out: EC50, P. yoelii Sporozoite Invasion Assay.
The mark [5] stands for this setting: infected human red blood cells, read-out: EC50, P. falciparum Proliferation Assay.

Where two headings read alike, the source gives them in different places. A value given as a limit tells only on which side of the number the result lay.

For the molecule `CN(C(=O)c1cn2c(-c3ccc(C(N)=O)cc3)cnc2cn1)c1ccc(F)cc1` [Compound 11, 3-(4-carbamoylphenyl)-N-(4-fluorophenyl)-N-methylimidazo[1,2-a]pyrazine-6-carboxamide], the EC50 in experiment [1] (setting [2]) worked out at 74 nM; in the experiment on P. yoelii Sporozoite (setting [3]), 56 nM.
The like results for `CNC(=O)c1ccc(-c2cnc3cnc(C(=O)N(C)c4ccc(C#N)cc4)cn23)cc1` [Compound 38, N-(4-cyanophenyl)-N-methyl-3-[4-(methylcarbamoyl)phenyl]imidazo[1,2-a]pyrazine-6-carboxamide] were, in that order, 131 nM and 290 nM.
For `CN(C(=O)c1cn2c(-c3ccc(C(F)(F)F)cc3)cnc2cn1)c1ccc(C#N)cc1` [Compound 76, N-(4-cyanophenyl)-N-methyl-3-[4-(trifluoromethyl)phenyl]imidazo[1,2-a]pyrazine-6-carboxamide], the EC50 in experiment [1] (72 h, read-out: EC50 (nM), inhibitory efficacy in delaying P. falciparum proliferation in infected human blood cells) was found to be 35 nM; in the experiment on P. yoelii Sporozoite (setting [3]), 263 nM.
For `CN(Cc1cn2c(-c3ccc(C(F)(F)F)cc3)cnc2cn1)c1ccc(C#N)cc1` [Compound 213, 4-[methyl({3-[4-(trifluoromethyl)phenyl]imidazo[1,2-a]pyrazin-6-yl}methyl)amino]benzonitrile], the EC50 in experiment [1] (setting [2]) is 41 nM; in the experiment on P. yoelii Sporozoite (setting [4]), below 50 nM; in the experiment with P. yoelii Sporozoite (setting [3]) it was 14 nM.
With `CN(Cc1cn2c(-c3ccc(C(N)=O)cc3)cnc2cn1)c1ccc(F)cc1` [Compound 222, 4-(6-{[(4-fluorophenyl)(methyl)amino]methyl}imidazo[1,2-a]pyrazin-3-yl)benzamide], the EC50 in experiment [1] (setting [2]) is 30 nM; in experiment [1] (setting [5]) it was below 50 nM; in the experiment with P. yoelii Sporozoite (setting [4]), below 50 nM; in the experiment with P. yoelii Sporozoite (setting [3]), 7 nM.
For `CN(Cc1cn2c(-c3ccc(C(N)=O)cc3)cnc2cn1)c1ccc(C#N)cc1` [Compound 223, 4-(6-{[(4-cyanophenyl)(methyl)amino]methyl}imidazo[1,2-a]pyrazin-3-yl)benzamide], the results for the EC50 (in experiment [1] (setting [2]); with P. yoelii Sporozoite (setting [4]); in the experiment on P. yoelii Sporozoite (setting [3])) were 25 nM, below 50 nM and 11 nM, respectively.
`CN(C(=O)c1cn2c(-c3ccc(-c4ccn[nH]4)cc3)cnc2cn1)c1ccc(C#N)cc1` [Compound 481, N-(4-cyanophenyl)-N-methyl-3-[4-(1H-pyrazol-5-yl)phenyl]imidazo[1,2-a]pyrazine-6-carboxamide]: the EC50 in experiment [1] (setting [2]) worked out at 34 nM.
For the molecule `CNc1nnc(-c2ccc(-c3cnc4cnc(C(=O)N(C)c5ccc(Cl)cc5)cn34)cc2)o1` [Compound 483, N-(4-chlorophenyl)-N-methyl-3-{4-[5-(methylamino)-1,3,4-oxadiazol-2-yl]phenyl}imidazo[1,2-a]pyrazine-6-carboxamide], the EC50 was 9 nM in experiment [1] (setting [2]) and below 50 nM in experiment [1] (setting [5]).
On to `CN(C(=O)c1cn2c(-c3ccc(-c4cc[nH]n4)cc3)cnc2cn1)c1ccc(C#N)cc1` [Compound 484, N-(4-cyanophenyl)-N-methyl-3-[4-(1H-pyrazol-3-yl)phenyl]imidazo[1,2-a]pyrazine-6-carboxamide], for which, in experiment [1] (setting [2]), the EC50 was 20 nM.
Same read-out and setting: the same measure for `CC(=O)Nc1ccc(-c2cnc3cnc(C(=O)N(C)c4ccc(C#N)cc4)cn23)cc1` [Compound 485, N-(4-cyanophenyl)-3-(4-acetamidophenyl)-N-methylimidazo[1,2-a]pyrazine-6-carboxamide]: 54 nM; for `CN(C(=O)c1cn2c(-c3ccc4c(cnn4C)c3)cnc2cn1)c1ccc(Cl)nc1` [Compound 489, N-(6-chloropyridin-3-yl)-N-methyl-3-(1-methyl-1H-indazol-5-yl)imidazo[1,2-a]pyrazine-6-carboxamide]: 522 nM.
The same measure, in the same setting: the same measure for `CN(C(=O)c1cn2c(-c3ccc(C(F)(F)F)cc3)cnc2cn1)c1cc(F)ccn1` [Compound 490, N-(4-fluoropyridin-2-yl)-N-methyl-3-[4-(trifluoromethyl)phenyl]imidazo[1,2-a]pyrazine-6-carboxamide]: 293 nM; for `COc1ncccc1N(C)C(=O)c1cn2c(-c3ccc(C(F)(F)F)cc3)cnc2cn1` [Compound 492, N-(2-methoxypyridin-3-yl)-N-methyl-3-[4-(trifluoromethyl)phenyl]imidazo[1,2-a]pyrazine-6-carboxamide]: 377 nM; for `CN(C(=O)c1cn2c(-c3ccc(-c4nncs4)cc3)cnc2cn1)c1ccc(C#N)cc1` [Compound 493, N-(4-cyanophenyl)-N-methyl-3-[4-(1,3,4-thiadiazol-2-yl)phenyl]imidazo[1,2-a]pyrazine-6-carboxamide]: 529 nM.
On the same count and under the same terms, the same measure for `O=C(c1cn2c(-c3ccc(C(F)(F)F)cc3)cnc2cn1)N1CCS(=O)(=O)c2ccccc21` [Compound 494, (1,1-dioxido-2H-benzo[b][1,4]thiazin-4(3H)-yl)(3-(4-(trifluoromethyl)phenyl)imidazo[1,2-a]pyrazin-6-yl)methanone]: 3350 nM.
As to `CN(C(=O)c1cn2c(-c3ccc(C(F)(F)F)cc3)cnc2cn1)c1cnc(Cl)s1` [Compound 496, N-(2-chloro-1,3-thiazol-5-yl)-N-methyl-3-[4 (trifluoromethyl)phenyl]imidazo[1,2-a]pyrazine-6-carboxamide], the EC50 in experiment [1] (setting [2]) is 2840 nM.
Still for that read-out and setting: the same measure for `O=C1CN(C(=O)c2cn3c(-c4ccc(C(F)(F)F)cc4)cnc3cn2)c2ccccc2N1` [Compound 497, 4-({3-[4-(trifluoromethyl)phenyl]imidazo[1,2-a]pyrazin-6-yl}carbonyl)-1,2,3,4-tetrahydroquinoxalin-2-one]: above 9320 nM.
On the same count and under the same terms, the same measure for `CN(C(=O)c1cncnc1)c1cn2c(-c3ccc(C(F)(F)F)cc3)cnc2cn1` [Compound 498, N-methyl-N-{3-[4-(trifluoromethyl)phenyl]imidazo[1,2-a]pyrazin-6-yl}pyrimidine-5-carboxamide]: 5690 nM; for `CN(C(=O)c1cn2c(-c3ccc(C(F)(F)F)cc3)cnc2cn1)c1ccc(-c2ccccc2)nc1` [Compound 499, N-methyl-N-(6-phenylpyridin-3-yl)-3-[4-(trifluoromethyl)phenyl]imidazo[1,2-a]pyrazine-6-carboxamide]: 4510 nM.
`CN(C(=O)c1cn2c(-c3ccc(C(F)(F)F)cc3)cnc2cn1)c1ccc(C(F)(F)F)cc1` [Compound 500, N-methyl-N,3-bis[4-(trifluoromethyl)phenyl]imidazo[1,2-a]pyrazine-6-carboxamide]: the EC50 in experiment [1] (setting [2]) was found to be 353 nM.
Turning to `CN(C(=O)c1cn2c(-c3ccc(C(F)(F)F)cc3)cnc2cn1)c1ccc(S(C)(=O)=O)cc1` [Compound 501, N-(4-methanesulfonylphenyl)-N-methyl-3-[4-(trifluoromethyl)phenyl]imidazo[1,2-a]pyrazine-6-carboxamide], the EC50 in experiment [1] (setting [2]) stood at 1450 nM.
The same measure, in the same setting: next, `CN(C(=O)c1cn2c(-c3ccc(C(F)(F)F)cc3)cnc2cn1)c1ccc(C#N)c(Cl)c1` [Compound 502, N-(3-chloro-4-cyanophenyl)-N-methyl-3-[4-(trifluoromethyl)phenyl]imidazo[1,2-a]pyrazine-6-carboxamide]: 2000 nM.
Still for that read-out and setting: the same measure for `COc1cc(C#N)ccc1N(C)C(=O)c1cn2c(-c3ccc(C(F)(F)F)cc3)cnc2cn1` [Compound 503, N-(4-cyano-2-methoxyphenyl)-N-methyl-3-[4-(trifluoromethyl)phenyl]imidazo[1,2-a]pyrazine-6-carboxamide]: 60 nM.
